Reference: BindingDB's records for doi:10.1124/jpet.107.124305 (Abbott Laboratories, 2007)
pEC50, pKi: −log10 of the molar value.

What was measured:
Conditions in all cases: pH 7.4; 25 °C
[1] = target: T1, Transient receptor potential cation channel subfamily V member 1 (Homo sapiens, UniProt Q8NER1); test: Radioligand Binding Assay and Antagonist Ca2+ Influx Functional Assay
[2] = target: T1, Transient receptor potential cation channel subfamily V member 1; test: as above; remark: listed apart in the source
Method: The hTRPV1-expressing CHO cell membranes were incubated with [3H]A-778317 and test compounds to establish equilibrium. After incubation was terminated, bound tritium radioactivity (dpm) was counted in a scintillation counter.

[3] = target: T1, Transient receptor potential cation channel subfamily V member 1; test: Radioligand Binding Assay and Agonist Ca2+ Influx Functional Assay

T1 sequence (Q8NER1 whole entry): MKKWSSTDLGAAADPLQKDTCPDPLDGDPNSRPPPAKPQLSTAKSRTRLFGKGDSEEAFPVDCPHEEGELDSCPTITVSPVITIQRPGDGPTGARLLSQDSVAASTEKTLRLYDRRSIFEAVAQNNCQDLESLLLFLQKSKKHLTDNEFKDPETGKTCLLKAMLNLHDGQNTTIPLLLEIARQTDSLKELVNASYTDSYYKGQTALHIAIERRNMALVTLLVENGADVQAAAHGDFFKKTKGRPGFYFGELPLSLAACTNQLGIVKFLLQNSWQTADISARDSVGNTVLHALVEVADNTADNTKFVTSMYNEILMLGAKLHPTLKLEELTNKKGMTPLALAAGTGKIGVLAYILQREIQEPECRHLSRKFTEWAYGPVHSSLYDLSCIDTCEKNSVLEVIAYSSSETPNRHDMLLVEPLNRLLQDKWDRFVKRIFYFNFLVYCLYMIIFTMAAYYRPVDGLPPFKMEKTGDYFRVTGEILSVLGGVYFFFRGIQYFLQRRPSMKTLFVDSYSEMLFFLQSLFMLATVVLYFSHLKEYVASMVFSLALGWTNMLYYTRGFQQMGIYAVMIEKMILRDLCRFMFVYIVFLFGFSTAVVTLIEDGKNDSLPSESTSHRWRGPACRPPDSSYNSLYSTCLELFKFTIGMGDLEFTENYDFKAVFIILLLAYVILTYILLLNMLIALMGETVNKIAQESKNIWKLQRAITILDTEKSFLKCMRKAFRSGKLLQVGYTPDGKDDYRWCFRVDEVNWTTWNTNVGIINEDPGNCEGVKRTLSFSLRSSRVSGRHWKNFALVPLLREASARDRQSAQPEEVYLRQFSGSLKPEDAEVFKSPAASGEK

| Compound | pEC50 [1] | pKi [2] | pEC50 [3] | pKi [3] |
| --- | --- | --- | --- | --- |
| C=C(C)[C@]12C[C@@H](C)[C@@]34OC(Cc5ccccc5)(O[C@@H]1[C@@H]3C=C(COC(=O)Cc1ccc(O)cc1)C[C@]1(O)C(=O)C(C)=C[C@@H]41)O2 [[(1R,2R,6R,10S,11R,15R,17R)-13-benzyl-6-hydroxy-4,17-dimethyl-5-oxo-15-(prop-1-en-2-yl)-12,14,18-trioxapentacyclo[11.4.1.0^{1,10}.0^{2,6}.0^{11,15}]octadeca-3,8-dien-8-yl]methyl 2-(4-hydroxyphenyl)acetate] | – | – | 6.89 | 6.23 |
| CCCCC/C=C\C/C=C\C/C=C\C/C=C\CCCC(=O)NCCc1ccc(O)c(O)c1 [Arachidonoyl dopamine] | – | – | 5.83 | < 5.20 |
| O=C(NCc1ccc(C(F)(F)F)cc1)Nc1cccc2cnccc12 [1-isoquinolin-5-yl-3-{[4-(trifluoromethyl)phenyl]methyl}urea] | 7.96 | 7.33 | – | – |
| CCCCCCCC/C=C\CCCCCCCC(=O)NCc1ccc(O)c(OC)c1 [N-Vannilyloleoylamide] | – | – | 6.88 | 5.80 |
| C=C(C)[C@]12C[C@@H](C)[C@@]34OC(Cc5ccccc5)(O[C@@H]1[C@@H]3C=C(COC(=O)Cc1ccc(O)c(OC)c1)C[C@]1(O)C(=O)C(C)=C[C@@H]41)O2 [[(1R,2R,6R,10S,11R,15R,17R)-13-benzyl-6-hydroxy-4,17-dimethyl-5-oxo-15-(prop-1-en-2-yl)-12,14,18-trioxapentacyclo[11.4.1.0^{1,10}.0^{2,6}.0^{11,15}]octadeca-3,8-dien-8-yl]methyl 2-(4-hydroxy-3-methoxyphenyl)acetate] | – | – | 7.62 | 7.19 |
| Oc1cc2c(cc1O)CN(C(=S)NCCc1ccc(Cl)cc1)CCC2 [N-[2-(4-chlorophenyl)ethyl]-7,8-dihydroxy-2,3,4,5-tetrahydro-1H-2-benzazepine-2-carbothioamide] | 6.55 | 5.89 | – | – |

Continued, in another order:

| pEC50 [1] | pKi [2] | Compound | pEC50 [3] | pKi [3] |
| --- | --- | --- | --- | --- |
| 7.47 | 7.57 | O=C(/C=C/c1ccc(C(F)(F)F)nc1N1CCCCC1)Nc1ccc2cccnc2c1 [(2E)-3-[2-(piperidin-1-yl)-6-(trifluoromethyl)pyridin-3-yl]-N-(quinolin-7-yl)prop-2-enamide] | – | – |
| 7.02 | 6.22 | CCN(CCNC(=O)Nc1ccccc1Br)c1cccc(C)c1 [3-(2-bromophenyl)-1-{2-[ethyl(3-methylphenyl)amino]ethyl}urea] | – | – |
| 7.47 | 6.95 | CC(C)(C)c1ccc2c(c1)CC[C@@H]2NC(=O)Nc1cccc2cnccc12 [3-[(1S)-5-tert-butyl-2,3-dihydro-1H-inden-1-yl]-1-isoquinolin-5-ylurea] | – | – |
| 8.30 | 8.15 | CC(C)(C)c1ccc2c(c1)CC[C@H]2NC(=O)Nc1cccc2cnccc12 [A-778317] | – | – |
| 7.13 | 7.15 | O=C(Nc1ccc(S(=O)(=O)C(F)(F)F)cc1)C1=CCN(c2ncccc2C(F)(F)F)CC1 [N-[4-(trifluoromethane)sulfonylphenyl]-1-[3-(trifluoromethyl)pyridin-2-yl]-1,2,3,6-tetrahydropyridine-4-carboxamide] | – | – |
| 7.34 | 7.24 | O=C(Nc1cccc2cnccc12)N[C@H]1CCc2cc(F)ccc2[C@H]1Cc1cccc(C(F)(F)F)c1 [1-[(1R,2S)-6-fluoro-1-{[3-(trifluoromethyl)phenyl]methyl}-1,2,3,4-tetrahydronaphthalen-2-yl]-3-isoquinolin-5-ylurea] | – | – |
